The target in assay [1] is T1, menin/MLL binding (biotinylated wild-type or mutated menin and MLL-AF9 fusion protein) (Homo sapiens, UniProt O00255).
T1 construct: biotinylated (1) wild-type menin or (2) mutated menin (described in Nature (2012) Vol. 482, pp. 542-548); fused on or other part: Biotin attached chemically (Sulfo-NHS-Biotin); no fused second protein is printed for menin
T1 sequence (O00255 1-459 limits assumed): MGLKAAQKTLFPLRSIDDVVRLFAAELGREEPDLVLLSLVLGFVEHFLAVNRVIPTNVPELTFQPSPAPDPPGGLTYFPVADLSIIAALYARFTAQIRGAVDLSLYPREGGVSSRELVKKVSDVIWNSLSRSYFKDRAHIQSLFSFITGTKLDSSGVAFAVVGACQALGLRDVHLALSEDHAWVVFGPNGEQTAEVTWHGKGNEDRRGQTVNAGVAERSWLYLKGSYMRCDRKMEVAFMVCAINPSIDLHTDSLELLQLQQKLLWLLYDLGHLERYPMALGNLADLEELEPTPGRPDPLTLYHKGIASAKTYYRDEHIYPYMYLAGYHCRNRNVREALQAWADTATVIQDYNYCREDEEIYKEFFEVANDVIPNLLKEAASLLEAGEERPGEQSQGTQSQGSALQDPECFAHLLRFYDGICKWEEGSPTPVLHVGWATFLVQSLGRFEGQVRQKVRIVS
In words: Assay 1 (Binding Assay): AlphaLISA menin/MLL binding. The settings on record: 5 nM biotinylated menin, MLL-AF9-FLAG lysate. In outline:
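Biotinylated E. coli-expressed menin (wild-type or mutant), 5 nM, incubated 30 min RT with compound and HEK293 lysate of MLL1-1,396–AF9-FLAG in pH 7.4 Tris buffer, 5% DMSO, 1 mM DTT. Anti-FLAG acceptor and streptavidin donor beads added, 60 min RT, AlphaLISA signal read. IC50 from four-parameter fit of % inhibition.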

Assay [2] deals with human acute monocytic leukemia cell line MV-4-11. In words: Assay 2 (Cell Proliferation Assay), ATP quantitation (CellTiter-Glo). In kind it is cell-based. The settings on record: MV-4-11 cells, read-out: Assay 2 (EC50, inhibition of cell proliferation). As for the experimental part:
Potencies of inhibitor compounds against cell proliferation was assessed against the human acute monocytic leukemia cell line MV-4-11 (ATCC® CRL-9591™) based on ATP quantitation. MV-4-11 cells or toxicity control HL-60 cells (ATCC® CCL-240™) were incubated in 96-well tissue culture plates (1.67×10^4 cells in 200 μL culture media containing 10% FBS per well) with or without test compound for 72 h at 37° C., 5% CO2. After incubation, each well was mixed by pipetting and 95 μL from each well was transferred to a well in 96-well black OptiPlate® plates (PerkinElmer). An equal volume of CellTiter-Glo® Luminescent Cell Viability Assay reagent (Promega) was added to each well, followed by mixing for 5 min on an orbital plate shaker. Luminescence was measured on a Wallac EnVision 2104 Multilabel Reader (PerkinElmer) to quantitate ATP. Percent inhibition of cell proliferation by test compounds was calculated based on uninhibited cell growth (DMSO) versus cells treated with a potent menin inhibitor at a concentration yielding at least 100×LD50.

Data on 20 molecules can be found in US10899758B2, “Inhibitors of the menin-MLL interaction” (Vitae Pharmaceuticals, LLC, priority 2016, dated 2021).

SMILES strings stand for the structures. Read-outs that look alike come from different tables or passages of the source.

In the case of `CC(C)N(C)C(=O)c1cc(F)ccc1-n1cc(C2CCN(Cc3ccc(NS(C)(=O)=O)cc3)CC2)c2ccncc21` [Example 23, 5-fluoro-N-isopropyl-N-methyl-2-(3-(1-(4-(methylsulfonamido)benzyl)piperidin-4-yl)-1H-pyrrolo[2,3-c]pyridin-1-yl)benzamide], the IC50 in assay [1] is less than 100 nM. Besides, the EC50 in assay [2] (Homo sapiens, MV4-11, 72 h) was not below 1000 nM.

As to `CC(C)N(C)C(=O)c1cc(F)ccc1-n1cc(C2CCCN(Cc3ccc4c(c3)NC(=O)C4(C)C#N)C2)c2ccncc21` (stereo not shown) [Example 88, 2-(3-(1-((3-cyano-3-methyl-2-oxoindolin-6-yl)methyl)piperidin-3-yl)-1H-pyrrolo[2,3-c]pyridin-1-yl)-5-fluoro-N-isopropyl-N-methylbenzamide], in assay [1], the IC50 was less than 100 nM. In addition, in assay [2] (Homo sapiens, MV4-11, 72 h), the EC50 was less than 100 nM.

In assay [1], `Cc1c(CN2CCC(n3c(=O)n(-c4ccc(F)cc4)c4cnccc43)CC2)ccc2[nH]c(C#N)cc12` [Example 80, 5-((4-(3-(4-fluorophenyl)-2-oxo-2,3-dihydro-1H-imidazo[4,5-c]pyridin-1-yl)piperidin-1-yl)methyl)-4-methyl-1H-indole-2-carbonitrile] had an IC50 of less than 100 nM. In addition, the EC50 in assay [2] (Homo sapiens, MV4-11, 72 h) is not below 1000 nM.

In assay [1], `CC(C)N(C)C(=O)c1cc(F)ccc1-n1cc([C@H]2CC[C@@H](N3CCC(O)CC3)CC2)c2ccncc21` [Example 109, 5-fluoro-2-(3-(cis-4-(4-hydroxypiperidin-1-yl)cyclohexyl)-1H-pyrrolo[2,3-c]pyridin-1-yl)-N-isopropyl-N-methylbenzamide] showed an IC50 of less than 100 nM. For the same molecule, in assay [2] (Homo sapiens, MV4-11, 72 h), the EC50 lay within 100 to 1000 nM.

Molecule `CC(C)N(C)C(=O)c1cc(F)ccc1-n1cc([C@H]2CC[C@H](N3CCCCC3)CC2)c2ccncc21` [Example 106, 5-fluoro-N-isopropyl-N-methyl-2-(3-(trans-4-(piperidin-1-yl)cyclohexyl)-1H-pyrrolo[2,3-c]pyridin-1-yl)benzamide] displayed an IC50 in assay [1] of less than 100 nM. Moreover, the EC50 in assay [2] (Homo sapiens, MV4-11, 72 h) lay within 100 to 1000 nM.

Turning to `CC(C)N(C)C(=O)c1cc(F)ccc1-n1cc(C2CCN(CCc3ccc(C(C)(C)C#N)cc3)CC2)c2ccncc21` [Example 29, 2-(3-(1-(4-(2-cyanopropan-2-yl)phenethyl)piperidin-4-yl)-1H-pyrrolo[2,3-c]pyridin-1-yl)-5-fluoro-N-isopropyl-N-methylbenzamide], in assay [1], the IC50 was less than 100 nM. Moreover, in assay [2] (Homo sapiens, MV4-11, 72 h), the EC50 fell in the range of 100 to 1000 nM.

The molecule `CCN(C(=O)c1cc(F)ccc1-n1cc(C2CCCN(Cc3ccc4c(c3)[nH]c(=O)n4CCO)C2)c2ccncc21)C(C)C` (stereo not shown) [Example 49, N-ethyl-5-fluoro-2-(3-(1-((1-(2-hydroxyethyl)-2-oxo-2,3-dihydro-1H-benzo[d]imidazol-5-yl)methyl)piperidin-3-yl)-1H-pyrrolo[2,3-c]pyridin-1-yl)-N-isopropylbenzamide] came in with an IC50 in assay [1] of less than 100 nM. The EC50 in assay [2] (Homo sapiens, MV4-11, 72 h) is less than 100 nM.

In the case of `CC(C)N(C)C(=O)c1cc(F)ccc1-n1cc(C2CCN(C[C@H]3CC[C@H](NS(C)(=O)=O)CC3)C2)c2ccncc21` (stereo partly drawn) [Example 124, N-methyl-5-fluoro-N-isopropyl-2-(3-(1-((trans-4-(methylsulfonamido)cyclohexyl)methyl)pyrrolidin-3-yl)-1H-pyrrolo[2,3-c]pyridin-1-yl)benzamide], the IC50 in assay [1] was less than 100 nM. For the same molecule, in assay [2] (Homo sapiens, MV4-11, 72 h), the EC50 lay in the range of 100 to 1000 nM.

With `CC(C)N(C)C(=O)c1cc(F)ccc1-n1cc(C2CCN(Cc3ccc(F)cc3)CC2)c2ccncc21` [Example 9, 5-fluoro-2-(3-(1-(4-fluorobenzyl)piperidin-4-yl)-1H-pyrrolo[2,3-c]pyridin-1-yl)-N-isopropyl-N-methylbenzamide], the IC50 in assay [1] is less than 100 nM. Also, the EC50 in assay [2] (Homo sapiens, MV4-11, 72 h) was 100 to 1000 nM.

For the molecule `CC(C)N(C)C(=O)c1cc(F)ccc1-n1cc(C2CCC(NCC3CCC(NS(C)(=O)=O)CC3)CC2)c2ccncc21` (single isomer, unassigned) [Example 62, 5-fluoro-N-isopropyl-N-methyl-2-(3-(4-(((4-(methylsulfonamido)cyclohexyl)methyl)amino)cyclohexyl)-1H-pyrrolo[2,3-c]pyridin-1-yl)benzamide], the IC50 in assay [1] is less than 100 nM. In assay [2] (72 h), the EC50 is not below 1000 nM.

With `CCN(C(=O)c1cc(F)ccc1-n1cc(C2CCCN(Cc3ccc4[nH]c(=O)[nH]c4c3)C2)c2ccncc21)C(C)C` (stereo not shown) [Example 47, N-ethyl-5-fluoro-N-isopropyl-2-(3-(1-((2-oxo-2,3-dihydro-1H-benzo[d]imidazol-5-yl)methyl)piperidin-3-yl)-1H-pyrrolo[2,3-c]pyridin-1-yl)benzamide], the IC50 in assay [1] was less than 100 nM. Also, in assay [2] (Homo sapiens, MV4-11, 72 h), the EC50 is less than 100 nM.

In the case of `CC(C)N(C)C(=O)c1cc(F)ccc1-n1cc(C2CCN(Cc3ccc4cc(C#N)[nH]c4c3)CC2)c2ccncc21` [Example 8, 2-(3-(1-((2-cyano-1H-indol-6-yl)methyl)piperidin-4-yl)-1H-pyrrolo[2,3-c]pyridin-1-yl)-5-fluoro-N-isopropyl-N-methylbenzamide], the IC50 in assay [1] is less than 100 nM. Besides, the EC50 in assay [2] (Homo sapiens, MV4-11, 72 h) was less than 100 nM.

The molecule `CC(C)N(C)C(=O)c1cc(F)ccc1-n1cc([C@H]2CC[C@@H](N3CCCC3)CC2)c2ccncc21` [Example 56, 5-fluoro-N-isopropyl-N-methyl-2-(3-(cis-4-(pyrrolidin-1-yl)cyclohexyl)-1H-pyrrolo[2,3-c]pyridin-1-yl)benzamide] had an IC50 in assay [1] of less than 100 nM. For the same molecule, the EC50 in assay [2] (Homo sapiens, MV4-11, 72 h) was in the range of 100 to 1000 nM.

`CC(C)N(C)C(=O)c1cc(F)ccc1-n1cc([C@H]2CC[C@H](N3CCC(F)(F)CC3)CC2)c2ccncc21` [Example 110, 2-(3-(trans-4-(4,4-difluoropiperidin-1-yl)cyclohexyl)-1H-pyrrolo[2,3-c]pyridin-1-yl)-5-fluoro-N-isopropyl-N-methylbenzamide] had an IC50 in assay [1] of less than 100 nM. Moreover, the EC50 in assay [2] (Homo sapiens, MV4-11, 72 h) was in the range of 100 to 1000 nM.

In assay [1], `CC(C)N(C)C(=O)c1cc(F)ccc1-n1cc(C2CCN(CC3CCOCC3)CC2)c2ccncc21` [Example 4, 5-fluoro-N-isopropyl-N-methyl-2-(3-(1-((tetrahydro-2H-pyran-4-yl)methyl)piperidin-4-yl)-1H-pyrrolo[2,3-c]pyridin-1-yl)benzamide] registered an IC50 of less than 100 nM. In addition, in assay [2] (Homo sapiens, MV4-11, 72 h), the EC50 is not below 1000 nM.

`CC(C)N(C)C(=O)c1cc(F)ccc1-n1cc(C2CCN(Cc3ccc(C#N)cc3)CC2)c2ccncc21` [Example 12, 2-(3-(1-(4-cyanobenzyl)piperidin-4-yl)-1H-pyrrolo[2,3-c]pyridin-1-yl)-5-fluoro-N-isopropyl-N-methylbenzamide] returned an IC50 in assay [1] of less than 100 nM. Moreover, the EC50 in assay [2] (Homo sapiens, MV4-11, 72 h) is 100 to 1000 nM.

Turning to `CC(C)N(C(=O)c1cc(F)ccc1-n1cc(C2CN(CC[C@H]3CC[C@H](NC(=O)OC(C)(C)C)CC3)C2)c2ccncc21)C(C)C` [Example 136, tert-butyl ((1r,4r)-4-(2-(3-(1-(2-(diisopropylcarbamoyl)-4-fluorophenyl)-1H-pyrrolo[2,3-c]pyridin-3-yl)azetidin-1-yl)ethyl)cyclohexyl)carbamate], in assay [1], the IC50 is less than 100 nM. Besides, the EC50 in assay [2] (Homo sapiens, MV4-11, 72 h) is less than 100 nM.

The molecule `CC(C)N(C)C(=O)c1cc(F)ccc1-n1cc(C2CCC(NCc3ccc4[nH]c(=O)[nH]c4c3)CC2)c2ccncc21` (single isomer, unassigned) [Example 60A, 5-fluoro-N-isopropyl-N-methyl-2-(3-(4-(((2-oxo-2,3-dihydro-1H-benzo[d]imidazol-5-yl)methyl)amino)cyclohexyl)-1H-pyrrolo[2,3-c]pyridin-1-yl)benzamide] gave an IC50 in assay [1] of less than 100 nM. In addition, in assay [2] (72 h), the EC50 is not below 1000 nM.

As to `Cc1c(CN2CCC(n3c(=O)n(-c4ccc(F)cc4C(=O)N(C)C(C)C)c4cnccc43)CC2)ccc2[nH]c(C#N)cc12` [Example 82, 2-(1-(1-((2-cyano-4-methyl-1H-indol-5-yl)methyl)piperidin-4-yl)-2-oxo-1,2-dihydro-3H-imidazo[4,5-c]pyridin-3-yl)-5-fluoro-N-isopropyl-N-methylbenzamide], the half-inhibitory concentration (IC50) in assay [1] was less than 100 nM. Also, in assay [2] (Homo sapiens, MV4-11, 72 h), the EC50 is less than 100 nM.

For the molecule `CC(=O)N[C@H]1CC[C@H](CN2CCC(c3cn(-c4ccc(F)cc4C(=O)N(C)C(C)C)c4cnccc34)CC2)CC1` [Example 20, 2-(3-(1-(((1r,4r)-4-acetamidocyclohexyl)methyl)piperidin-4-yl)-1H-pyrrolo[2,3-c]pyridin-1-yl)-5-fluoro-N-isopropyl-N-methylbenzamide], in assay [1], the IC50 is less than 100 nM. In addition, in assay [2] (Homo sapiens, MV4-11, 72 h), the EC50 fell in the range of 100 to 1000 nM.
